{"source": "PubChem BioAssay (NCI)", "note": "Several values for one entry are separate records, joined by “and”; a condition that tells them apart may be missing. Equal entries are not always repeated.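 Values below derive from 48-hour exposures of cells grown in 96-well plates, with endpoints linearly interpolated between the two concentrations bracketing the appropriate inhibition level. GI50: concentration for 50% inhibition of growth. TGI: total growth inhibition.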 *1 amine or outer side, *2 acyl side, *3 side chain or, on linkers, in order; H or OH if unused. Where a SMILES comes first, the peptide text is derived from it. Bridges are numbered along the chain shown (N, C = ends). [ ]: non-standard residue; d: D form. The star is where a group is joined. Phe(3,5-F2) = N[C@@H](Cc1cc(F)cc(F)c1)C(=O)O; Pro(4R-Me) = C[C@H]1CN[C@H](C(=O)O)C1; aThr = C[C@H](O)[C@H](N)C(=O)O; Pip = O=C(O)[C@@H]1CCCCN1; X10 = Fc1cc(C2CC2)ccc1N*; Abu = CC[C@H](N)C(=O)O; CO = O=C([*:1])[*:2]", "data": [{"tested_on": "MDA-MB-468 breast", "assay": "NCI tumour cell line growth inhibition, 48 h", "values": [{"compound": "N=C1S/C(=C/c2ccc(-c3ccc4c(c3)C(=O)NC4=O)o2)C(=O)N1c1ccc(Br)cc1", "GI50": "4570 nM", "TGI": "> 100000 nM"}, {"compound": "COc1cnc2c(c1)C(=O)c1c-2n(CCCBr)c(=O)c2cc([N+](=O)[O-])ccc12", "GI50": "291 nM", "TGI": "955 nM"}, {"compound": "CC(C)=NNc1ncnc2c1ncn2C1OC(CO)C(O)C1O", "note": "(stereo not drawn)", "GI50": "499 nM", "TGI": "3900 nM"}, {"compound": "Nc1c(C(=O)Nc2ccccn2)sc2nc3c(cc12)CCCCC3", "GI50": "1050 nM", "TGI": "> 50000 nM"}, {"compound": "Cc1cc(Nc2ncc(F)c(N[C@H]3[C@@H](C(N)=O)[C@@H]4C=C[C@H]3C4)n2)ccc1N1CCN(C)CC1", "GI50": "< 16.1 nM", "TGI": "1260 nM"}, {"compound": "CC(=O)Nc1ccc2c(C3=C(c4cn(C)c5ccccc45)C(=O)NC3=O)cn(C)c2c1", "GI50": "988 nM", "TGI": "> 7220 nM"}, {"compound": "CCC[C@H](N[C@H]1CCc2cc(F)cc(F)c2C1)C(=O)Nc1cn(C(C)(C)CNCC(C)(C)C)cn1", "TGI": "74600 nM and 21100 nM"}, {"compound": "COc1cccc2cc(N(C)c3ncnc4ccccc34)ccc12", "GI50": "< 10 nM", "TGI": "4740 nM"}, {"compound": "CCCCCc1c(C)[nH]c(/C=C2\\N=C(c3ccc[nH]3)C=C2Oc2ccccc2)c1C", "GI50": "10.4 nM", "TGI": "301 nM"}, {"compound": "c1ccc(CSc2nnc3c4c5c(sc4nc(-c4cccnc4)n23)CCCCCC5)cc1", "GI50": "568 nM", "TGI": "4120 nM"}, {"compound": "CCN(CC)c1ccc2c(cc1=O)[C@@H](NC(C)=O)CCc1cc(OC)c(OC)c(OC)c1-2", "GI50": "130 nM"}, {"compound": "O=[N+]([O-])c1ccc2scc3c4ccccc4nc-3c2c1", "GI50": "919 nM", "TGI": "2250 nM"}, {"compound": "COc1cc(-c2nn(-c3ccc(NC(=O)NCCCNC(=O)c4ccccc4)cc3)cc2-c2ccncc2)ccc1Cl", "GI50": "284 nM", "TGI": "827 nM"}, {"compound": "O=C(O)c1sccc1O", "GI50": "32900 nM", "TGI": "> 100000 nM"}, {"compound": "O=c1[nH]c2ccc(N=Cc3c(O)[nH]c4ccccc34)cc2[nH]1", "GI50": "> 25000 nM", "TGI": "> 25000 nM"}, {"compound": "COc1ccc(C(O)c2cc3c(N)c(C(=O)Nc4cccc(OC)c4)sc3nc2C)cc1", "note": "(stereo not drawn)", "GI50": "1230 nM", "TGI": "4610 nM"}, {"compound": "COc1cc(OC)cc(C2C(C#N)=C(N)Oc3c2ccc2ccc(O)cc32)c1", "note": "(stereo not drawn)", "GI50": "< 10 nM", "TGI": "980 nM"}, {"compound": "CCn1cc(C(=O)N/N=C/c2ccc(Br)cc2)c(=O)c2cc(F)c(N3CCNC(C)C3)c(F)c21", "note": "(stereo not drawn)", "GI50": "1590 nM", "TGI": "3090 nM"}, {"compound": "CC/C=C\\C/C=C\\C[C@H]1C/C=C2/C(=O)C=C[C@@H]2C/C=C\\CCC(=O)O1", "GI50": "838 nM", "TGI": "2530 nM"}, {"compound": "O=C(Nc1ccc(Oc2cccc(Cl)c2)c(Cl)c1)c1cnccn1", "GI50": "255 nM", "TGI": "> 15800 nM"}, {"compound": "Cc1ccc(C)c(COc2cc(NC(=O)c3ccc4c(c3)OCO4)ccc2N(C)S(C)(=O)=O)c1", "GI50": "114 nM", "TGI": "440 nM"}, {"compound": "O=C(NC1CCC(Br)CC1)C1CCCC(S(=O)(=O)NC2CCCCC2)C1", "note": "(stereo not drawn)", "GI50": "6440 nM", "TGI": "24900 nM"}, {"compound": "CC[C@@H]1NC(=O)[C@@H]2CCCCN2C(=O)[C@@H]2CCCN2C(=O)[C@@H](NC(=O)[C@H](Cc2cc(F)cc(F)c2)NC(=O)Nc2ccc(C3CC3)cc2F)[C@H](C)OC(=O)[C@@H]2C[C@@H](C)CN2C1=O", "note": "({X10-CO}-[Phe(3,5-F2)][aThr]P[Pip][Abu][Pro(4R-Me)]; ester 2-C)", "GI50": "26.7 nM", "TGI": "149 nM"}, {"compound": "O=C(CNc1c(Cl)cccc1Cl)Nc1ccc(-c2nc3ccccc3s2)cc1", "GI50": "38.1 nM", "TGI": "219 nM"}, {"compound": "Cn1cc(C2=C(c3c4n(c5ccccc35)CCN(C(N)=S)C4)C(=O)NC2=O)c2ccccc21", "GI50": "3350 nM", "TGI": "> 21000 nM"}, {"compound": "FC(F)(F)c1ccc(CNc2ccc(Cc3c[nH]c4ncc(Cl)cc34)cn2)cn1", "GI50": "5100 nM and 3770 nM", "TGI": "34400 nM and > 10000 nM"}, {"compound": "Cc1nc2ccccc2c(/C=C/c2ccc(Cl)cc2)c1C(=O)/C=C/c1ccc(F)cc1", "GI50": "1800 nM", "TGI": "3730 nM"}, {"compound": "FC(F)(F)CNc1nccc(-c2cnn3ncccc23)n1", "GI50": "8490 nM", "TGI": "> 25000 nM"}, {"compound": "COc1cc(C(C)c2ccc3c(ccn3C)c2)cc(OC)c1OC", "note": "(stereo not drawn)", "GI50": "< 10 nM", "TGI": "62100 nM"}, {"compound": "Oc1ccc(CCl)c2cccnc12", "GI50": "3390 nM", "TGI": "54300 nM"}, {"compound": "ClC1=C(Cl)C(Cl)=C(Cl)C1=Cc1ccccc1", "GI50": "1310 nM", "TGI": "2690 nM"}, {"compound": "COCCNCCc1cccc(Nc2ncc3c(n2)-c2ccccc2C(c2ccccc2F)C3)c1", "note": "(stereo not drawn)", "GI50": "1900 nM and 2000 nM", "TGI": "3700 nM and 3860 nM"}, {"compound": "C[C@]12CC[C@H](OC3OC(O)C(O)C(O)C3O)C=C1CCC1C2CC[C@]2(C)[C@@H](c3ccc(=O)oc3)CC[C@]12O", "note": "(stereo partly drawn)", "GI50": "3.79 nM and 5.12 nM", "TGI": "20.2 nM and 14.5 nM"}, {"compound": "COc1ccc(F)cc1/C=C/C(=O)/C=C(/C=C/c1cc(F)ccc1OC)OB(F)F", "GI50": "1620 nM", "TGI": "4370 nM"}, {"compound": "O=C1Nc2ccccc2C1(c1c[nH]c2ccccc12)c1c[nH]c2ccccc12", "GI50": "2080 nM", "TGI": "4560 nM"}]}]}
